According to paper PMC12074421, “Development and Characterization of pFluor50, a Fluorogenic-Based Kinetic Assay System for High-Throughput Inhibition Screening and Characterization of Time-Dependent Inhibition and Inhibition Type for Six Human CYPs” (Molecules, 2025):
Several values for one entry are separate records, joined by “and”; a condition that tells them apart may be missing. Equal entries are not always repeated. Entries after “also recorded” stand apart in the source; their conditions may differ. Structures can show the parent of a compound that is named as a salt. Where two headings read alike, the source gives them in different places.

Legend:
[1] = molecular target: T1, CYP2B6 (Homo sapiens, UniProt P20813); assay: pFluor50 Michaelis–Menten kinetics, CYP2B6 with Bzres; type: in vitro ADME; set-up: purchased Sigma Aldrich (CYPexpress, Oxford Biomedical Research, Inc.) MTOXCE2B6
T1 sequence (P20813 1-491): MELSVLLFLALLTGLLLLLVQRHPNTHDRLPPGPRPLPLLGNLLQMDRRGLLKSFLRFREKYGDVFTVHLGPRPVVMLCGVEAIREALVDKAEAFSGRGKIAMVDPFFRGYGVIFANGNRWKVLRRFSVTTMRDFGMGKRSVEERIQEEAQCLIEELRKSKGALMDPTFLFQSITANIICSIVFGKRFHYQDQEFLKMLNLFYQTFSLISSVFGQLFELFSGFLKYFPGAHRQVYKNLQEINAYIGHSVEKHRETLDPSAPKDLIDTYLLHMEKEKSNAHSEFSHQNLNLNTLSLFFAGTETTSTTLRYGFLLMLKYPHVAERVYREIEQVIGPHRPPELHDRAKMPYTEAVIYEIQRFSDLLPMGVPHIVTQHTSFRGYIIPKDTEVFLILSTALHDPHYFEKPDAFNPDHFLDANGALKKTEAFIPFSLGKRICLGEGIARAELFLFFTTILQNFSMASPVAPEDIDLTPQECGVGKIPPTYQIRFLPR
Description: (§1) In general, the protocol for determination of the Michaelis–Menten kinetic parameters (KM and Vmax) involved addition of the appropriate master mix to phosphate buffer followed by addition of the appropriate amount of enzyme to the mix. The master mix was determined for each specific CPY450 based on empirical methods involving each reagent to obtain a linear range of enzyme activity. A total of 30 µL of this enzyme mix was then added to each well of the 384-well plate. Next, initial background readings were taken for 5 min, after which the appropriate amount of substrate was dispensed into each well using the onboard reagent dispenser of the plate reader. All plates contained one blank well without enzyme (only master mix) for each substrate concentration. […] Table 1 provides the formulation of the master mix for each CYP, the kinetic read time with substrate, the read time interval, the concentration range of the substrate used for the Michaelis–Menten kinetics, the Ex and Em wavelengths, and the concentration of substrate for inhibition/activation screening. Table S1 details the specific parameters used for the plate reader for each CYP–substrate pair.
For determining the Michaelis–Menten kinetic parameters (KM and Vmax) for each CYP–substrate pair, kinetic studies were performed in which a range of different concentrations of the substrate were used. Table 1 details the formulations for the master mix, CYPexpress^TM concentrations, and concentration ranges of each specific substrate. For each CYP–substrate pair, plate reader parameters were set up as described in Table S1. The protocol used for Michaelis–Menten kinetics was similar for all the CYPs. Briefly, the working solution was prepared for each substrate and then primed into one of the dispensers on the plate reader. The other dispenser was primed with the buffer solution. 1.5 mL of phosphate buffer solution (pH 7.4) was used to prepare the master mix with the appropriate concentration of each reagent as specified in Table 1 (NADPH, NADP+, G6P, G6PDH, and/or MgCl2). The amount of CYPexpress reagent in units/(mg/mL) was determined for each enzyme as new lots may have slightly different activities, and the activity of the reagent may change over time. The appropriate mass of each CYPexpress^TM reagent needed to obtain the required units was measured using an analytical balance and was transferred to the master mix solution. This solution was mixed, and 30 µL of the solution was added to each well using a multichannel pipette. In each case, a blank control well was also included, as described in Figure S1. The plate was then transferred to the plate reader and readings were taken at the time intervals, for the appropriate length of time, and at the appropriate wavelengths as specified in Table 1.
Calibration curves were constructed using the determined plate reader settings (Figure S3) and concentrations of the products formed to allow for the calculation of product formation rates based on the observed fluorescence. For these calculations, we presumed that the total increase in observed fluorescence over time was due only to product formation. Calibration curves were generated with 6 different concentrations of the products (fluorescein and resorufin), which spanned the relative fluorescence units (RFU) observed during the kinetic experiments. This allowed for the calculation of product concentrations from the observed RFU, enabling the calculation of the product formation rates. Unfortunately, fluorescein benzyl ester (the product formed from the metabolism of dibenzyl fluorescein) is not commercially available. Therefore, the exact rate of formation could not be determined, and the Vmax for CYP3A4 cleavage of dibenzyl fluorescein has been reported as the rate of change in relative fluorescence units (RFUs) per minute.

[2] = molecular target: T1, CYP2B6; set-up: purchased Sigma Aldrich (CYPexpress, Oxford Biomedical Research, Inc.) MTOXCE2B6; method as in PMID 17433521, PMID 9732386; conditions: read-out: Literature KM (converted), cited from earlier work
[3] = molecular target: T2, CYP3A4 (Homo sapiens, UniProt P08684); assay: pFluor50 fluorogenic CYP3A4 inhibition (IC50, time dependence)
T2 sequence (P08684 2-503 limits assumed): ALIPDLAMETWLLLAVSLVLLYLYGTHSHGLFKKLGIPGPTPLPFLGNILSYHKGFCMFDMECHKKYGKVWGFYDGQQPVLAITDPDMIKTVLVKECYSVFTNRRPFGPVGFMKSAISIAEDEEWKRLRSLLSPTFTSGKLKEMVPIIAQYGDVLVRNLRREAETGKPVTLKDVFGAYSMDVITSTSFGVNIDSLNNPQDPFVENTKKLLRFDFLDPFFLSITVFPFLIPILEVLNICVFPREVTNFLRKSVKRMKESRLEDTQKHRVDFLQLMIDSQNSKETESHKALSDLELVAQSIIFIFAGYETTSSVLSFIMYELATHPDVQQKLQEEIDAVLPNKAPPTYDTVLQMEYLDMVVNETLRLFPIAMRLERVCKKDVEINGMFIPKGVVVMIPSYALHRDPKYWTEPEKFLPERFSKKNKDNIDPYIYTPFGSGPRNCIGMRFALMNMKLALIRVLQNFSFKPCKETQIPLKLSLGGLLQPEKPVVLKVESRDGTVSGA

[4] = molecular target: T2, CYP3A4; set-up: purchased Sigma Aldrich (CYPexpress, Oxford Biomedical Research, Inc.) MTOXCE3A4; conditions: read-out: Literature IC50 (converted), cited from earlier work
[5] = molecular target: T2, CYP3A4; assay: pFluor50 Michaelis–Menten kinetics, CYP3A4 with DBF; type: in vitro ADME; set-up: purchased Sigma Aldrich (CYPexpress, Oxford Biomedical Research, Inc.) MTOXCE3A4
Description: as §1
For determining the Michaelis–Menten kinetic parameters (KM and Vmax) for each CYP–substrate pair, kinetic studies were performed in which a range of different concentrations of the substrate were used. Table 1 details the formulations for the master mix, CYPexpress^TM concentrations, and concentration ranges of each specific substrate. For each CYP–substrate pair, plate reader parameters were set up as described in Table S1. […] Briefly, the working solution was prepared for each substrate and then primed into one of the dispensers on the plate reader. […] The amount of CYPexpress reagent in units/(mg/mL) was determined for each enzyme as new lots may have slightly different activities, and the activity of the reagent may change over time. The appropriate mass of each CYPexpress^TM reagent needed to obtain the required units was measured using an analytical balance and was transferred to the master mix solution. […]

[6] = molecular target: T2, CYP3A4; set-up: purchased Sigma Aldrich (CYPexpress, Oxford Biomedical Research, Inc.) MTOXCE3A4; method as in PMID 11095581, PMID 22252407; conditions: read-out: Literature KM (converted); cited from earlier work
[7] = molecular target: T1, CYP2B6; assay: biochemical
Description: (§2) Therefore, the pre-incubation time between the inhibitor and the CYP was first optimized prior to the full IC50 determinations. […] Therefore, a 10 min pre-incubation time was selected for convenience. […] Therefore, the sertraline pre-incubation time for the inhibition assay was optimized to 30 min (the time at which inhibition was no longer time-dependent).

[8] = molecular target: T3, CYP2D6 (Homo sapiens, UniProt P10635); assay: biochemical
T3 sequence (P10635 whole entry): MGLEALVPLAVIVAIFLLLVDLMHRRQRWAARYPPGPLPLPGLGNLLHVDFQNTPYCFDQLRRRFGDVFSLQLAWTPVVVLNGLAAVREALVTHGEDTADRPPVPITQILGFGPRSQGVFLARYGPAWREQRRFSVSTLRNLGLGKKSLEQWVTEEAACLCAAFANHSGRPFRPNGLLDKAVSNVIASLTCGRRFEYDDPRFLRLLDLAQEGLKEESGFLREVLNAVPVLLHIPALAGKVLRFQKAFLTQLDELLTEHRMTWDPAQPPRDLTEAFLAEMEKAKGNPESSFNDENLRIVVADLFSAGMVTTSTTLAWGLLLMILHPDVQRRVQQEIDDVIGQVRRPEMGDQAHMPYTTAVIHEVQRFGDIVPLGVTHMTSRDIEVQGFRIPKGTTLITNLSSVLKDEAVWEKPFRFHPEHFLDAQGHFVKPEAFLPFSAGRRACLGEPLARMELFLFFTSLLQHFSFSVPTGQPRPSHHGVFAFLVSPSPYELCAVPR

[9] = molecular target: T1, CYP2B6; assay: pFluor50 fluorogenic CYP2B6 inhibition (IC50, time dependence); conditions: 30 µM inhibitor, pre-incubation between 5 and 30 min
Description: as §2

[10] = molecular target: T3, CYP2D6; assay: pFluor50 fluorogenic CYP2D6 inhibition (IC50, time dependence); conditions: 30 µM inhibitor, pre-incubation between 5 and 30 min
[11] = molecular target: T1, CYP2B6; set-up: purchased Sigma Aldrich (CYPexpress, Oxford Biomedical Research, Inc.) MTOXCE2B6; conditions: read-out: Literature IC50 (converted), cited from earlier work
[12] = molecular target: T3, CYP2D6; set-up: purchased Sigma Aldrich (CYPexpress, Oxford Biomedical Research, Inc.) MTOXCE2D6; conditions: CYP2D6, Bufuralol/LC-MS/MS; read-out: Literature IC50 (converted); cited from earlier work
[13] = molecular target: CYP2C9 (Homo sapiens, UniProt P11712); conditions: substrate Eres, model comparison by Akaike's Information Criterion
CYP2C9, sequence (P11712 whole entry): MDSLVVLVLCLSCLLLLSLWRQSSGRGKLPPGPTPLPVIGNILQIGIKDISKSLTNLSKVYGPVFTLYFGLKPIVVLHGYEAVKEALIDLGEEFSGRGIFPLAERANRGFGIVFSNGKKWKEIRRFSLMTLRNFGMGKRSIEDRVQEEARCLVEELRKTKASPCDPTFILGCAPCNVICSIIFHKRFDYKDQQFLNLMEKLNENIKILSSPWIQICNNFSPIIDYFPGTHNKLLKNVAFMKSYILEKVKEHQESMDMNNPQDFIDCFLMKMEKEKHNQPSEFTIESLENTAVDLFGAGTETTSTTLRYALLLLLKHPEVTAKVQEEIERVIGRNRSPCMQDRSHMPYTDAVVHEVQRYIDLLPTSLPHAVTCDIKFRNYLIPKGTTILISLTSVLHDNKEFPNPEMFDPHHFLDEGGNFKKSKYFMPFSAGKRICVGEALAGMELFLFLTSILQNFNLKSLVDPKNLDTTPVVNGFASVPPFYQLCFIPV

What does the source list for `O=c1ccc2nc3ccc(OCc4ccccc4)cc3oc-2c1` [Bzres, 7-(benzyloxy)-3H-phenoxazin-3-one]?
Average Vmax ([1]; CYP2B6 1 mg/mL, rate of product formation): 0.33 ± 0.1 nmol/min; Km ([1]; CYP2B6 1 mg/mL, three biological replicates, read-out: Average KM): 40.6 ± 19.6 µM; Average Vmax ([1]; CYP2B6, Table S3): 0.3343 ± 0.1111 nmol/min; Vmax – repeat 1 ([1]; CYP2B6, biological repeat 1): 276.3 pmol/min; Vmax – repeat 2 ([1]; CYP2B6, biological repeat 2): 264.2 pmol/min; Vmax – repeat 3 ([1]; CYP2B6, biological repeat 3): 462.4 pmol/min; Km ([1]; human, CYPexpress CYP2B6 enzyme reagent, pH 7.4, CYP2B6 1 mg/mL, three biological replicates, read-out: Average KM): 40.6 ± 19.6 µM; Km ([1]; human, CYPexpress CYP2B6 enzyme reagent, pH 7.4, CYP2B6, biological repeat 1, read-out: KM – repeat 1): 33 µM; Km ([1]; human, CYPexpress CYP2B6 enzyme reagent, pH 7.4, CYP2B6, biological repeat 2, read-out: KM – repeat 2): 25.9 µM; Km ([1]; human, CYPexpress CYP2B6 enzyme reagent, pH 7.4, CYP2B6, biological repeat 3, read-out: KM – repeat 3): 62.9 µM; Km ([2]; CYP2B6, human Bl cell): 1.3 µM; Km ([2]; CYP2B6): 34 ± 10.4 µM

What does the source list for `Cc1ccc(-c2c(-c3nn(C)c4ncnc(N5CC[C@H](N6CCCCC6)C5)c34)cnn2C)cc1` [CYP3cide]?
Time dependence of CYP3A4 inhibition ([3]; 0.05 µM inhibitor, pre-incubation between 5 and 30 min): time-dependent manner; also recorded: increase with time; IC50 ([3]; read-out: Average IC50, CYP3A4, DBF 4 µM, 5 min pre-incubation, DMSO 0.5%): 126 ± 66.2 nM; IC50 ([3]; read-out: IC50 (nM)– repeat 1, CYP3A4, biological repeat 1): 108 nM; IC50 ([3]; read-out: IC50 (nM)– repeat 2, CYP3A4, biological repeat 2): 200 nM; IC50 ([3]; read-out: IC50 (nM)– repeat 3, CYP3A4, biological repeat 3): 70.8 nM; IC50 ([4]; CYP3A4, Midazolam/LC-MS/MS): 300 ± 20 nM; IC50 ([4]; CYP3A4, Testosterone/LC-MS/MS): 690 nM

What does the source list for `O=C(OCc1ccccc1)c1ccccc1-c1c2ccc(=O)cc-2oc2cc(OCc3ccccc3)ccc12` [DBF, benzyl 2-(6-(benzyloxy)-3-oxo-3H-xanthen-9-yl)benzoate]?
Vmax – repeat 1 ([5]; CYP3A4, biological repeat 1): 92.28 RFU/min; Vmax – repeat 2 ([5]; CYP3A4, biological repeat 2): 104.6 RFU/min; Vmax – repeat 3 ([5]; CYP3A4, biological repeat 3): 76.71 RFU/min; Km [6]: 0.87 µM and 1.37 µM

Which IC50 [7] does the source give for `CN[C@H]1CC[C@@H](c2ccc(Cl)c(Cl)c2)c2ccccc21` [Sertraline, sertraline hydrochloride] here?
The IC50 was 385 nM and 1390 nM and 477 nM and 752 nM.

What about the IC50 [8] of the same compound?
Its IC50 is 5790 nM and 3220 nM and 4240 nM and 4420 nM.

What about the “Time dependence of CYP2B6 inhibition” value [9] of the same compound?
Its value is “increases with time; also recorded: time-dependent manner”.

What about the “Time dependence of CYP2D6 inhibition” value [10] of the same compound?
Its value is “time-dependent manner; also recorded: increase in inhibition with time”.

What about the IC50 ([11]; CYP2B6, Bupropion/LC-MS/MS, ref 52) of the same compound?
The IC50 was 200 ± 24 nM.

And the IC50 ([11]; CYP2B6, Bupropion/LC-MS/MS, ref 54)?
The IC50 was 1430 nM.

What about the IC50 ([11]; CYP2B6, HLM, Bupropion/LC-MS/MS) of the same compound?
The IC50 was 3200 nM.

What about the IC50 [12] of the same compound?
The IC50 was 2000 nM.

Which “Type of inhibition of CYP2C9” value [13] does the source give for `Nc1ccc(S(=O)(=O)Nc2ccnn2-c2ccccc2)cc1` [Sulfaphenazole, sulfaphenazole] here?
The value was “competitive inhibition”.
